Values of other authors in patent US9861098B2, “Method for producing agrichemical-containing resin composition” (Nippon Soda Co., Ltd., priority 2008, dated 2018).

Settings: 20° C.
For CNC(=O)Oc1cccc2c1OC(C)(C)O2 [bendiocarb], the water solubility is given as 280 ppm. In the case of CN/C(=N\[N+](=O)[O-])NCc1cnc(Cl)s1 [clothianidin], the water solubility is listed as 327 ppm. In the case of CCSCc1ccccc1OC(=O)NC [ethiofencarb], the water solubility is listed as 1800 ppm. In the case of CCN(Cc1ccc(Cl)nc1)/C(=C/[N+](=O)[O-])NC [nitenpyram], the water solubility is given as 590000 ppm. In the case of N#C/N=C1\SCCN1Cc1ccc(Cl)nc1 [thiacloprid], the water solubility is listed as 185 ppm. For COP(=O)(NC(C)=O)SC (stereo not drawn) [acephate], the water solubility is listed as 790000 ppm. In the case of CNC(=O)ON=C(C)SC [methomyl], the water solubility is given as 58000 ppm. In the case of CN1COCN(Cc2cnc(Cl)s2)/C1=N\[N+](=O)[O-] [thiamethoxam], the water solubility is given as 4100 ppm.

Same assay, conditions: 25° C.
For C/C(=N\C#N)N(C)Cc1ccc(Cl)nc1 [acetamiprid], the water solubility is given as 4250 ppm.
